# Laboratory results: ChEMBL document CHEMBL3885881, “DrugMatrix”
# Organism: Rattus norvegicus
# Assay: DrugMatrix - Regimen: Daily Repeat
# Format: toxicity, organism-based, Sprague-Dawley
# Design: regimen Daily Repeat, gender Male, age 6-8 weeks
# Conditions: in vivo, po, route oral GAVAGE, vehicle 100 % WATER; for ABSOLUTE BASOPHIL / ABSOLUTE EOSINOPHIL / ABSOLUTE LYMPHOCYTE / ABSOLUTE MONOCYTE / ABSOLUTE SEGMENTED NEUTROPHIL / BASOPHIL / EOSINOPHIL / ERYTHROCYTE COUNT / HEMATOCRIT / HEMOGLOBIN / LEUKOCYTE COUNT / LYMPHOCYTE / MEAN CORPUSCULAR HEMOGLOBIN / MEAN CORPUSCULAR HEMOGLOBIN CONCENTRATION / MEAN CORPUSCULAR VOLUME / MONOCYTE / NEUTROPHIL / NUCLEATED RED BLOOD CELLS / PLATELET COUNT: tissue Blood; for ALANINE AMINOTRANSFERASE / ALBUMIN / ALKALINE PHOSPHATASE / ASPARTATE AMINOTRANSFERASE / BLOOD UREA NITROGEN / CARBON DIOXIDE / CHLORIDE / CHOLESTEROL / CREATINE PHOSPHOKINASE / CREATININE / GLUCOSE / LACTATE DEHYDROGENASE / LIPASE / PHOSPHORUS / POTASSIUM / SODIUM / TOTAL BILIRUBIN / TOTAL PROTEIN / URIC ACID: tissue Plasma
# [1] = 0 mg/kg, 72 h, dose level Control, time 3 day
# [2] = 0 mg/kg, 120 h, dose level Control, time 5 day
# [3] = 150 mg/kg, 72 h, dose level Low, time 3 day
# [4] = 150 mg/kg, 120 h, dose level Low, time 5 day
smiles,measurement,setting,value
Cc1c(N(C)CS(=O)(=O)[O-])c(=O)n(-c2ccccc2)n1C.[Na+] [DIPYRONE SODIUM],ABSOLUTE BASOPHIL,[1],0 CELLS/uL
same,ABSOLUTE EOSINOPHIL,[1],25 CELLS/uL
same,ABSOLUTE LYMPHOCYTE,[1],14357 CELLS/uL
same,ABSOLUTE MONOCYTE,[1],456.33 CELLS/uL
same,ABSOLUTE SEGMENTED NEUTROPHIL,[1],1461.67 CELLS/uL
same,BASOPHIL,[1],0%
same,EOSINOPHIL,[1],0.17%
same,ERYTHROCYTE COUNT,[1],5.85 x10E6/uL
same,HEMATOCRIT,[1],37.62%
same,HEMOGLOBIN,[1],13.87 G/DL
same,LEUKOCYTE COUNT,[1],16.3 x10E3/uL
same,LYMPHOCYTE,[1],88%
same,MEAN CORPUSCULAR HEMOGLOBIN,[1],23.68 pg
same,MEAN CORPUSCULAR HEMOGLOBIN CONCENTRATION,[1],36.88 G/DL
same,MEAN CORPUSCULAR VOLUME,[1],64.23 fL
same,MONOCYTE,[1],2.83%
same,NEUTROPHIL,[1],9%
same,NUCLEATED RED BLOOD CELLS,[1],0 /100WBC
same,PLATELET COUNT,[1],1125.33 x10E3/uL
same,ALANINE AMINOTRANSFERASE,[1],49.67 u/L
same,ALBUMIN,[1],4.23 G/DL
same,ALKALINE PHOSPHATASE,[1],400.83 u/L
same,ASPARTATE AMINOTRANSFERASE,[1],89.17 u/L
same,BLOOD UREA NITROGEN,[1],16 mg/dL
same,CARBON DIOXIDE,[1],31.83 mmol/L
same,CHLORIDE,[1],99 MEQ/L
same,CHOLESTEROL,[1],76 mg/dL
same,CREATINE PHOSPHOKINASE,[1],777.67 u/L
same,CREATININE,[1],0.22 mg/dL
same,GLUCOSE,[1],158.33 mg/dL
same,LACTATE DEHYDROGENASE,[1],186.17 u/L
same,LIPASE,[1],9.33 u/L
same,PHOSPHORUS,[1],12.95 mg/dL
same,POTASSIUM,[1],7.01 MEQ/L
same,SODIUM,[1],141.53 MEQ/L
same,TOTAL BILIRUBIN,[1],0.18 mg/dL
same,TOTAL PROTEIN,[1],6.08 G/DL
same,URIC ACID,[1],1.77 mg/dL
same,ABSOLUTE BASOPHIL,[2],0 CELLS/uL
same,ABSOLUTE EOSINOPHIL,[2],0 CELLS/uL
same,ABSOLUTE LYMPHOCYTE,[2],8994.5 CELLS/uL
same,ABSOLUTE MONOCYTE,[2],122.33 CELLS/uL
same,ABSOLUTE SEGMENTED NEUTROPHIL,[2],666.5 CELLS/uL
same,BASOPHIL,[2],0%
same,EOSINOPHIL,[2],0%
same,ERYTHROCYTE COUNT,[2],5.74 x10E6/uL
same,HEMATOCRIT,[2],35.17%
same,HEMOGLOBIN,[2],13.28 G/DL
same,LEUKOCYTE COUNT,[2],9.78 x10E3/uL
same,LYMPHOCYTE,[2],92.33%
same,MEAN CORPUSCULAR HEMOGLOBIN,[2],23.15 pg
same,MEAN CORPUSCULAR HEMOGLOBIN CONCENTRATION,[2],37.8 G/DL
same,MEAN CORPUSCULAR VOLUME,[2],61.27 fL
same,MONOCYTE,[2],1.33%
same,NEUTROPHIL,[2],6.33%
same,NUCLEATED RED BLOOD CELLS,[2],0 /100WBC
same,PLATELET COUNT,[2],1117 x10E3/uL
same,ALANINE AMINOTRANSFERASE,[2],47.83 u/L
same,ALBUMIN,[2],4.33 G/DL
same,ALKALINE PHOSPHATASE,[2],414.5 u/L
same,ASPARTATE AMINOTRANSFERASE,[2],77.5 u/L
same,BLOOD UREA NITROGEN,[2],17 mg/dL
same,CARBON DIOXIDE,[2],32.33 mmol/L
same,CHLORIDE,[2],99.33 MEQ/L
same,CHOLESTEROL,[2],76.33 mg/dL
same,CREATINE PHOSPHOKINASE,[2],363.67 u/L
same,CREATININE,[2],0.25 mg/dL
same,GLUCOSE,[2],173.5 mg/dL
same,LACTATE DEHYDROGENASE,[2],129.33 u/L
same,LIPASE,[2],9.17 u/L
same,PHOSPHORUS,[2],11.52 mg/dL
same,POTASSIUM,[2],5.73 MEQ/L
same,SODIUM,[2],143.85 MEQ/L
same,TOTAL BILIRUBIN,[2],0.2 mg/dL
same,TOTAL PROTEIN,[2],6.43 G/DL
same,URIC ACID,[2],0.97 mg/dL
same,ABSOLUTE BASOPHIL,[3],0 CELLS/uL
same,ABSOLUTE EOSINOPHIL,[3],55.67 CELLS/uL
same,ABSOLUTE LYMPHOCYTE,[3],16817.67 CELLS/uL
same,ABSOLUTE MONOCYTE,[3],567 CELLS/uL
same,ABSOLUTE SEGMENTED NEUTROPHIL,[3],1026.33 CELLS/uL
same,BASOPHIL,[3],0%
same,EOSINOPHIL,[3],0.33%
same,ERYTHROCYTE COUNT,[3],5.75 x10E6/uL
same,HEMATOCRIT,[3],36.5%
same,HEMOGLOBIN,[3],13.47 G/DL
same,LEUKOCYTE COUNT,[3],18.47 x10E3/uL
same,LYMPHOCYTE,[3],91%
same,MEAN CORPUSCULAR HEMOGLOBIN,[3],23.47 pg
same,MEAN CORPUSCULAR HEMOGLOBIN CONCENTRATION,[3],36.9 G/DL
same,MEAN CORPUSCULAR VOLUME,[3],63.5 fL
same,MONOCYTE,[3],3%
same,NEUTROPHIL,[3],5.67%
same,NUCLEATED RED BLOOD CELLS,[3],0 /100WBC
same,PLATELET COUNT,[3],1215.67 x10E3/uL
same,ALANINE AMINOTRANSFERASE,[3],44.67 u/L
same,ALBUMIN,[3],4.4 G/DL
same,ALKALINE PHOSPHATASE,[3],361 u/L
same,ASPARTATE AMINOTRANSFERASE,[3],86 u/L
same,BLOOD UREA NITROGEN,[3],16 mg/dL
same,CARBON DIOXIDE,[3],33 mmol/L
same,CHLORIDE,[3],100.33 MEQ/L
same,CHOLESTEROL,[3],87 mg/dL
same,CREATINE PHOSPHOKINASE,[3],700 u/L
same,CREATININE,[3],0.19 mg/dL
same,GLUCOSE,[3],142.33 mg/dL
same,LACTATE DEHYDROGENASE,[3],212 u/L
same,LIPASE,[3],9.33 u/L
same,PHOSPHORUS,[3],13.33 mg/dL
same,POTASSIUM,[3],6.6 MEQ/L
same,SODIUM,[3],143.13 MEQ/L
same,TOTAL BILIRUBIN,[3],0.2 mg/dL
same,TOTAL PROTEIN,[3],6.2 G/DL
same,URIC ACID,[3],1.67 mg/dL
same,ABSOLUTE BASOPHIL,[4],0 CELLS/uL
same,ABSOLUTE EOSINOPHIL,[4],0 CELLS/uL
same,ABSOLUTE LYMPHOCYTE,[4],8863.67 CELLS/uL
same,ABSOLUTE MONOCYTE,[4],61.67 CELLS/uL
same,ABSOLUTE SEGMENTED NEUTROPHIL,[4],541.33 CELLS/uL
same,BASOPHIL,[4],0%
same,EOSINOPHIL,[4],0%
same,ERYTHROCYTE COUNT,[4],5.85 x10E6/uL
same,HEMATOCRIT,[4],36.3%
same,HEMOGLOBIN,[4],13.67 G/DL
same,LEUKOCYTE COUNT,[4],9.47 x10E3/uL
same,LYMPHOCYTE,[4],93.33%
same,MEAN CORPUSCULAR HEMOGLOBIN,[4],23.37 pg
same,MEAN CORPUSCULAR HEMOGLOBIN CONCENTRATION,[4],37.63 G/DL
same,MEAN CORPUSCULAR VOLUME,[4],62 fL
same,MONOCYTE,[4],0.67%
same,NEUTROPHIL,[4],6%
same,NUCLEATED RED BLOOD CELLS,[4],0 /100WBC
same,PLATELET COUNT,[4],1342 x10E3/uL
same,ALANINE AMINOTRANSFERASE,[4],52.67 u/L
same,ALBUMIN,[4],4.23 G/DL
same,ALKALINE PHOSPHATASE,[4],379 u/L
same,ASPARTATE AMINOTRANSFERASE,[4],72.33 u/L
same,BLOOD UREA NITROGEN,[4],16.33 mg/dL
same,CARBON DIOXIDE,[4],34.67 mmol/L
same,CHLORIDE,[4],100.67 MEQ/L
same,CHOLESTEROL,[4],67 mg/dL
same,CREATINE PHOSPHOKINASE,[4],175.33 u/L
same,CREATININE,[4],0.2 mg/dL
same,GLUCOSE,[4],135 mg/dL
same,LACTATE DEHYDROGENASE,[4],123 u/L
same,LIPASE,[4],8.67 u/L
same,PHOSPHORUS,[4],12.43 mg/dL
same,POTASSIUM,[4],6.37 MEQ/L
same,SODIUM,[4],145.67 MEQ/L
same,TOTAL BILIRUBIN,[4],0.17 mg/dL
same,TOTAL PROTEIN,[4],6.17 G/DL
same,URIC ACID,[4],1.3 mg/dL
